Measurements from US10159738B2, “Organic-inorganic hybrid solid having a modified outer surface” (CENTRE NATIONAL DE LA RECHERCHE SCIENTIFIQUE-CNRS, priority 2012, dated 2018).

What was measured:
[1] = COOH groups; cited from earlier work
[2] = system: J774 cell line; experiment: Penetration in the J774 cell line (CLSM, ATP-BODIPY label); format: cell-based, murine; details: 50 μg/ml, 15 min to 24 h
Experimental: For this analysis the MIL-100s were labeled with a fluorophore: adenosine 5′-triphosphate BODIPY-FL (ATP-BODIPY, adenosine 5′-triphosphate, BODIPY® FL, Invitrogen). 1.25 mg of MIL-100 was incubated with 500 μL of an aqueous solution of ATP-BODIPY 10 nmol/ml, for 1 h, with stirring in the dark at room temperature. At the end of incubation, the nanoparticles were recovered by centrifugation at 5600×g for 10 min, and the supernatant was analyzed by spectrofluorimetry in order to quantify the level of absorption of the fluorophore. The nanoparticles were then incubated in 500 μl of water (unmodified sample) or of an aqueous solution of βCDP 1.25 mg/ml, for 1 h with stirring, at room temperature, in the dark. At the end of incubation, the nanoparticles were recovered by centrifugation at 5600×g for 10 min and resuspended in RMPI 10% FBS (fetal bovine serum) to a final concentration of 50 μg/ml. The cells of the J774 line had been cultured beforehand in 24-well plates (5×10^4 cells per well) on a sterile glass cover slip.
After 24 h of incubation in a humidified incubator at 37° C., the culture medium was replaced with 1 ml of the solutions of nanoparticles loaded with ATP-BODIPY (unmodified or surface-modified), or with free ATP-BODIPY. After various incubation times (15 min, 1 h, 4 h, 24 h), the culture medium was aspirated and the cells were fixed.

| Molecule | pKa [1] | internalization in the cells [2] |
| --- | --- | --- |
| O=C(O)c1cc(C(=O)O)cc(C(=O)O)c1 [trimesic acid, 1,3,5-benzenetricarboxylic acid] | 3.4 | – |
| adenosine 5′-triphosphate, BODIPY® FL [ATP-BODIPY] | – | no fluorescence was observed in the cells |
